Assay type in all cases: functional
Assay [1] relates to Human immunodeficiency virus 1. The experiment in a line: Antiviral activity against Human immunodeficiency virus 1 clone 38086 harboring K49R, V60I, I135V, Q145M, Q174H, G196E, Q207E, R211K, V245K mutation in reverse transcriptase by phenosense assay relative to wild type.
Assay [2] relates to Human immunodeficiency virus 1. The assay is described as follows: Antiviral activity against Human immunodeficiency virus 1 clone Q9016 harboring K122E, Q145M, I202V, F214L mutation in reverse transcriptase by phenosense assay relative to wild type.
Assay [3] deals with Human immunodeficiency virus 1. The assay is described as follows: Antiviral activity against Human immunodeficiency virus 1 clone pNL4-3-Q145M harboring K102Q, Q145M, S162C, K277R, I293V mutation in reverse transcriptase by phenosense assay relative to wild type.
Assay [4] relates to Human immunodeficiency virus 1. The experiment in a line: Antiviral activity against Human immunodeficiency virus 1 clone 14682 harboring 122E, 135V, Q145V, 200A mutation in reverse transcriptase by phenosense assay relative to wild type.

In the case of `Cc1cn([C@H]2C=C[C@@H](CO)O2)c(=O)[nH]c1=O` [STAVUDINE], the “fold change (FC)” value in assay [1] was found to be 1.1; in assay [2] it was 1.1; in assay [3], 0.9; in assay [4], 0.9.
In the case of `C[C@H](Cn1cnc2c(N)ncnc21)OCP(=O)(O)O` [TENOFOVIR ANHYDROUS], the “fold change (FC)” value in assay [1] was 0.9; in assay [2] it was 1.5; in assay [3], 0.9; in assay [4], 0.9.
For the molecule `Cc1cn([C@H]2C[C@H](N=[N+]=[N-])[C@@H](CO)O2)c(=O)[nH]c1=O` [ZIDOVUDINE], the “fold change (FC)” value in assay [1] came to 0.9; in assay [2], 1.1; in assay [3], 0.7; in assay [4] it was 0.8.
For `Cc1ccnc2c1NC(=O)c1cccnc1N2C1CC1` [NEVIRAPINE] the same measures were 1.1, 0.7, 1.3 and 0.5.
For `CC(C)Nc1cccnc1N1CCN(C(=O)c2cc3cc(NS(C)(=O)=O)ccc3[nH]2)CC1` [DELAVIRDINE] the same measures were 0.4, 0.7, 0.6 and 0.9.
Taken in the same sequence, the figures for `Nc1nc(NC2CC2)c2ncn([C@H]3C=C[C@@H](CO)C3)c2n1` [ABACAVIR] were 0.9, 1.2, 1.1 and 1.1.
Consider `Nc1nc(=O)n([C@@H]2CS[C@H](CO)O2)cc1F` [EMTRICITABINE], for which the “fold change (FC)” value in assay [1] was determined as 1.2; in assay [2], 1.1; in assay [3], 0.9; in assay [4], 0.5.
On to `O=C1Nc2ccc(Cl)cc2[C@@](C#CC2CC2)(C(F)(F)F)O1` [EFAVIRENZ], for which the “fold change (FC)” value in assay [1] is given as 1; in assay [2] it was 1.2; in assay [3] it was 0.9; in assay [4] it was 1.3.
Taken in the same sequence, the figures for `O=c1[nH]cnc2c1ncn2[C@H]1CC[C@@H](CO)O1` [DIDANOSINE] were 1.5, 0.9, 1.1 and 1.

For the origin of these results see ChEMBL document CHEMBL1649174, “Human immunodeficiency virus type 1 isolates with the reverse transcriptase (RT) mutation Q145M retain nucleoside and nonnucleoside RT inhibitor susceptibility” (2009).
